Assay results reported in article PMC9605374 (Marine Drugs, 2022).
Like-named read-outs stand apart in the source and are kept apart here.

Legend:
PC-3 = system: PC-3; parameters: method as in PMID 27355960; settings: cited from earlier work
LNCaP [1] = system: LNCaP; parameters: method as in PMID 27355960; settings: cited from earlier work
22Rv1 [2] = system: 22Rv1; parameters: method as in PMID 27355960; settings: cited from earlier work
[3] = parameters: method as in PMID 27355960; settings: no hemolytic activity; cited from earlier work
DU145 = test: MTT assay, cell viability; type: cell-based; settings: Homo sapiens, DU-145, DU145, 48 h of treatment, mean ± SD
From the text: (§1) To examine the anticancer potential and selectivity of NB, we used a panel of six human prostate cancer cell lines, harboring different levels of treatment resistance to representatively reflect the heterogeneity of the disease. […] Additionally, four human noncancer cells lines were utilized in order to determine the selectivity of NB towards prostate cancer cells, i.e., prostate noncancer PNT2 and RWPE-1 cells, human embryonic kidney HEK 293T cells, and human fibroblasts MRC-9. The different cell lines were treated with NB and the cell viability was examined using MTT assay (Figure 1). The mean IC50 of NB and docetaxel (used as a reference substance) in noncancerous cell lines was divided by the mean IC50 in the prostate cancer cell lines to determine the selectivity index (SI).
(§2) The MTT assay was used to monitor the effect of the drugs on cell viability in terms of metabolic activity, as previously reported. First, preincubation of the cells in 96-well plates (6 × 10^3 cells/well in 100 μL/well) was performed overnight in the correspondent culture medium. Next, the medium was exchanged for fresh medium containing the investigated compounds or a vehicle (100 μL/well). Cells were then incubated for 48 h, unless otherwise stated. Then, 10 μL/well of 3-(4,5-dimethylthiazol-2-yl)-2,5-diphenyltetrazolium bromide reagent (MTT, 5 mg/mL) were added. After 2–4 h of additional incubation the media was removed, and the plates were dried. Finally, 50 μL/well of DMSO were added to solve the formed formazan crystals produced by the metabolic active cells and Infinite F200PRO reader (TECAN, Männedorf, Switzerland) was used to measure the cell viability. The results were proceeded with a GraphPad Prism software v.9.1.1 (GraphPad Software, San Diego, CA, USA). Cells treated with the solvent of the drugs alone were used as a control (100% alive cells). The effect of the drugs on cell viability is represented as IC50.

HEK293 = test: MTT assay, cell viability; type: cell-based; settings: Homo sapiens, HEK293, 48 h of treatment, mean ± SD
From the text: as §1, §2

PC3 = test: MTT assay, cell viability; type: cell-based; settings: Homo sapiens, PC-3, PC3, 48 h of treatment, mean ± SD
From the text: as §1, §2

MRC-9 = test: MTT assay, cell viability; type: cell-based; settings: Homo sapiens, MRC9, MRC-9, 48 h of treatment, mean ± SD
From the text: as §1, §2

RWPE-1 = test: MTT assay, cell viability; type: cell-based; settings: Homo sapiens, RWPE-1, 48 h of treatment, mean ± SD
From the text: as §1, §2

VCaP = test: MTT assay, cell viability; type: cell-based; settings: Homo sapiens, 48 h of treatment, mean ± SD
From the text: as §1, §2

22Rv1 [4] = test: MTT assay, cell viability; type: cell-based; settings: Homo sapiens, 22Rv1, 48 h of treatment, mean ± SD
From the text: as §1, §2

PNT2 = test: MTT assay, cell viability; type: cell-based; settings: Homo sapiens, PNT2, 48 h of treatment, mean ± SD
From the text: as §1, §2

LNCaP [5] = test: MTT assay, cell viability; type: cell-based; settings: Homo sapiens, 48 h of treatment, mean ± SD
From the text: as §1, §2

prostate cancer cells = test: MTT assay, mean IC50 in cancer cell panel and selectivity index; type: cell-based, human
From the text: as §1, §2

LC3B-I/II in 22Rv1 cells = test: Western blotting, autophagy marker; type: cell-based, human
Method: We examined several time points, specifically, 15 min, 2 h, and 48 h (Figure 6).
Figure 6 Validation of kinome analysis data. 22Rv1 cells were treated with 1 µM or 10 µM of NB for the indicated time. The protein expression was analyzed by Western blotting using total protein load equal to 30 µg/slot. α-Tubulin was used as a loading control.
The Western blot assay was executed as previously described: 1 × 10^6 cells were seeded in Petri dishes (ø 6 cm, 5 mL/dish) and incubated overnight. On the next day, the cells were treated with the compounds in fresh culture media (5 mL/dish) for the indicated time. Next, cells were harvested with a cell scraper and lysed in lysis buffer including protease and phosphatase inhibitors cocktail (Roche, Mannheim, Germany). Cell debris were removed from the protein lysates via centrifugation. Afterwards, the cell-free protein mixtures were separated in gradient ready-made Mini-PROTEAN® TGX Stain-Free^TM gels (Bio-Rad, Hercules, CA, USA) using SDS-PAGE (sodium dodecylsulfate polyacrylamide gel electrophoresis). Then, the proteins were blotted onto ø 0.2 µm pore PVDF membrane. The membrane was blocked and consequently treated with primary and secondary antibodies for protein detection. The signals were detected using the ECL chemiluminescence system (Thermo Scientific, Rockford, IL, USA).

Artemia salina = system: Artemia salina; parameters: method as in PMID 26039736; settings: cited from earlier work
PC3-DR cells = test: Drug combination study NB with docetaxel, MTT assay, SynergyFinder 2.0; type: cell-based; settings: Homo sapiens, 24 h
Method: Thus, drug-resistant PC3-DR cells were treated with docetaxel in combination with NB (Figure 9). Potential synergism between NB and docetaxel was measured by the Chou–Talalay method as described before.
Figure 9 Combinational treatment on PC3-DR cells with NB and docetaxel. […] MTT assay was used to examine cellular viability. Number of replicates n = 3. (A) The heatmap represents cytotoxicity (viability inhibition) of the individual drugs or their combinations. (B,C) To calculate and visualize in 2D (B) or 3D (C) the effect of the drug combination (synergism/additive effect/antagonism), the SynergyFinder v. 2.0 software (Network Pharmacology for Precision Medicine in the Research Program of System Oncology, Faculty of Medicine at University of Helsinki, Helsinki, Finland) and a ZIP reference model were used. Green regions indicate antagonism, white regions refer to additive effect, and red regions indicate synergism.
The experiments were carried out as previously reported. […] 22Rv1 cells (6 × 10^3 cells/well in 96-well plates) were simultaneously treated with NB and docetaxel; or pretreated with MAPK inhibitors for 1 h following treatment with NB in the total media volume of 100 µL/well. Following 24 h of incubation, the viability of the cells treated with individual drugs as well as their combinations was determined using MTT assay. […] Red areas (positive δ-values) and green areas (negative δ-values) indicate synergism and antagonism, respectively.

In the case of `COc1ccc(C2SSC34CC5(O)C(Cl)C=CC(O)C5ON3C(=O)C2N(C)C4=O)c(O)c1OC` (stereo not drawn) [NB, N-methylpretrichodermamide B], the IC50 (PC-3) is given as 5.11 µM, the IC50 (LNCaP [1]) is given as 1.76 µM and the IC50 (22Rv1 [2]) is given as 0.51 µM. The IC50 [3] was ≥ 100 µM, the IC50 (DU145) was 13 ± 2.69 µM and the IC50 (HEK293) was 9.3 ± 1.57 µM. The IC50 (PC3) was 6.03 ± 1.18 µM, the IC50 (MRC-9) was 11.1 ± 4.3 µM and the IC50 (RWPE-1) was 16.4 ± 1.87 µM. It also gave an IC50 (VCaP) of 0.143 ± 0.145 µM, an IC50 (22Rv1 [4]) of 3.02 ± 2.5 µM and an IC50 (PNT2) of 25.1 ± 5.92 µM. The IC50 (LNCaP [5]) was 12.2 ± 2.97 µM, the IC50 (prostate cancer cells; Homo sapiens, mean over PC3, PC3-DR, DU145, 22Rv1, VCaP, LNCaP, 48 h, MTT) was 6.46 µM and the “Selectivity Index (SI)” value (prostate cancer cells; [mean IC50 in noncancer cells]/[mean IC50 in cancer cells]) was 2.4. The “effect on autophagy (LC3B-I/II expression)” value (LC3B-I/II in 22Rv1 cells) was “no significant effect on autophagy”, the LD50 (Artemia salina) was 4.8 µM and the inhibition at 0.22 µM (PC3-DR cells) was 9.85%. For the same molecule, the inhibition at 0.67 µM (PC3-DR cells) was 15.5%, the inhibition at 2 µM (PC3-DR cells) was 14.3% and the inhibition at 6 µM (PC3-DR cells) was 17.2%.
